In patent publication US20220125765A1, “PHARMACEUTICAL COMBINATIONS COMPRISING MEBENDAZOLE AND A STRONG OR MODERATE CYP1A2 INHIBITOR” (ZEPHAPHARM LTD, priority 2019, published 2022):
Like-named read-outs stand apart in the source and are kept apart here.

Assays:
SXFS U-2197 = assay: 2D monolayer CellTiter-Blue viability, soft tissue sarcoma U-2197; type: cell-based; settings: 72 h
Protocol: (§1) Seventeen compounds, including mebendazole (Batch no. […] Efficacy of compounds was assessed using CellTiter-Blue® Cell Viability Assay. Anti-tumor activity is expressed as absolute and relative IC50 and IC70 values, calculated by non-linear regression analysis.

SXFS Hs 729 = assay: 2D monolayer CellTiter-Blue viability, soft tissue sarcoma Hs 729; type: cell-based; settings: 72 h
Protocol: as §1

[1] = target: T1, human OATP1B3 transporter (Homo sapiens, UniProt Q9NPD5); assay: Uptake into OATP1B3 and empty vector transfected HEK293 cells; type: in vitro ADME; settings: for Uptake rate Mean: 2 min; for Uptake ratio: OATP1B3 vs control
T1 construct: expressed in transfected cells; host or cells: HEK293 (transient transfection)
T1 sequence (Q9NPD5 1-702): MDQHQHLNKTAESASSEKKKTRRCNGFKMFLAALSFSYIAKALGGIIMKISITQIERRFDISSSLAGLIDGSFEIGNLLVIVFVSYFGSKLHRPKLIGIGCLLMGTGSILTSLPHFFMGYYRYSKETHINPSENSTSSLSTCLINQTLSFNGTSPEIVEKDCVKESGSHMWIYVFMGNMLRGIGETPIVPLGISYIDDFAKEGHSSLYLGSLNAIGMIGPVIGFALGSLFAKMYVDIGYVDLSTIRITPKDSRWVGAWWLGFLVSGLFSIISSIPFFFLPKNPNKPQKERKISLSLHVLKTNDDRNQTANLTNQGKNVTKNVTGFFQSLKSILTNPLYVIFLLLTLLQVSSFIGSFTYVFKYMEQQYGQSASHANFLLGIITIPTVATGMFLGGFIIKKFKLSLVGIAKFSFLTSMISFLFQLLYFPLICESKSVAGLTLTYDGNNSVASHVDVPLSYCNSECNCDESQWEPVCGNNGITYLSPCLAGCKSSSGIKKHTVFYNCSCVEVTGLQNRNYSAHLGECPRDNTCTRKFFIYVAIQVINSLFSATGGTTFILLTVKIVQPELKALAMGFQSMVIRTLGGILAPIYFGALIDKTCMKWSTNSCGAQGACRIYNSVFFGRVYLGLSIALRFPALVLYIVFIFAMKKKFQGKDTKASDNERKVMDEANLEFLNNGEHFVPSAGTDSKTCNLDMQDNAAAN
Protocol: Test compound (at 1 and 10 μM) was incubated with both SLC transporter-expressing HEK293 cells and control (empty vector) HEK293 cells for 2 min.

[2] = test system: 6 ovarian cancer (OVXF) and 6 renal cancer (RXF) cell lines; assay: 2D monolayer CellTiter-Blue viability, panel geometric mean (Example 10); type: cell-based; settings: 12 cell lines, 72 h
Protocol: (§2) Mebendazole was tested in vitro across a panel of 12 tumor cell lines of ovarian and renal cancer by using a 2D monolayer assay. […] OVXF 899L and RXF 486L are P-gp expressing, multidrug resistant cell lines.
(§3) Anti-tumor activity is expressed as absolute and relative IC50/70 values, calculated by 4-parameter non-linear curve fit.

NBXF SH-SY5Y = assay: 2D monolayer CellTiter-Blue viability, neuroblastoma SH-SY5Y; type: cell-based; settings: 72 h
Protocol: as §1

SXFS TE671 = assay: 2D monolayer CellTiter-Blue viability, soft tissue sarcoma TE671; type: cell-based; settings: 72 h
Protocol: as §1

NBXF SHEP = assay: 2D monolayer CellTiter-Blue viability, neuroblastoma SHEP; type: cell-based; settings: 72 h
Protocol: as §1

OVCAR-3 = assay: 2D monolayer CellTiter-Blue viability, ovarian cancer OVCAR-3; type: cell-based; settings: for IC50: Homo sapiens; for Test/Control (%) at Drug Concentration: 72 h
Protocol: as §2, §3

NBXF CHP-212 = assay: 2D monolayer CellTiter-Blue viability, neuroblastoma CHP-212; type: cell-based; settings: 72 h
Protocol: as §1

With COC(=O)Nc1nc2ccc(C(=O)c3ccccc3)cc2[nH]1 [Mebendazole, methyl N-(6-benzoyl-1H-benzimidazol-2-yl)carbamate] the “Test/Control (%) at Drug Concentration” value (SXFS U-2197; U-2197, 1.0E+00 μM) was 42%, the “Test/Control (%) at Drug Concentration” value (SXFS U-2197; U-2197, 1.0E+01 μM) was 37% and the “Test/Control (%) at Drug Concentration” value (SXFS U-2197; U-2197, 1.0E+02 μM) was 18%. The “Test/Control (%) at Drug Concentration” value (SXFS U-2197; U-2197, 1.0E−01 μM) was 91%, the “Test/Control (%) at Drug Concentration” value (SXFS U-2197; U-2197, 1.0E−02 μM) was 93% and the “Test/Control (%) at Drug Concentration” value (SXFS U-2197; U-2197, 3.2E+00 μM) was 44%. For the same compound, the “Test/Control (%) at Drug Concentration” value (SXFS U-2197; U-2197, 3.2E+01 μM) was 36%, the “Test/Control (%) at Drug Concentration” value (SXFS U-2197; U-2197, 3.2E−01 μM) was 79% and the “Test/Control (%) at Drug Concentration” value (SXFS U-2197; U-2197, 3.2E−02 μM) was 93%. For the same compound, the “Test/Control (%) at Drug Concentration” value (SXFS U-2197; U-2197, 3.2E−03 μM) was 93%, the “Test/Control (%) at Drug Concentration” value (SXFS Hs 729; Hs 729, 1.0E+00 μM) was 65% and the “Test/Control (%) at Drug Concentration” value (SXFS Hs 729; Hs 729, 1.0E+01 μM) was 44%. For the same compound, the “Test/Control (%) at Drug Concentration” value (SXFS Hs 729; Hs 729, 1.0E+02 μM) was 12%, the “Test/Control (%) at Drug Concentration” value (SXFS Hs 729; Hs 729, 1.0E−01 μM) was 90% and the “Test/Control (%) at Drug Concentration” value (SXFS Hs 729; Hs 729, 1.0E−02 μM) was 91%. The “Test/Control (%) at Drug Concentration” value (SXFS Hs 729; Hs 729, 3.2E+00 μM) was 56%, the “Test/Control (%) at Drug Concentration” value (SXFS Hs 729; Hs 729, 3.2E+01 μM) was 35% and the “Test/Control (%) at Drug Concentration” value (SXFS Hs 729; Hs 729, 3.2E−01 μM) was 84%. For the same compound, the “Test/Control (%) at Drug Concentration” value (SXFS Hs 729; Hs 729, 3.2E−02 μM) was 89%, the “Test/Control (%) at Drug Concentration” value (SXFS Hs 729; Hs 729, 3.2E−03 μM) was 93% and the “Uptake rate Mean” value ([1]; 1 μM, OATP1B3 HEK293 cells) was 56.6 pmol/mg. For the same compound, the Uptake ratio ([1]; 1 μM) was 1.1, the “Uptake rate Mean” value ([1]; 1 μM, control (empty vector) HEK293 cells) was 50.1 pmol/mg and the “Uptake rate Mean” value ([1]; 10 μM, OATP1B3 HEK293 cells) was 466 pmol/mg. The Uptake ratio ([1]; 10 μM) was 1.1, the “Uptake rate Mean” value ([1]; 10 μM, control (empty vector) HEK293 cells) was 414 pmol/mg and the “substrate of the human OATP1B3 transporter” value ([1]; 1 and 10 μM) was “not a substrate”. For the same compound, the “Geometric mean Abs. IC70” value [2] was 1515 nM, the “Geometric mean Rel. IC70” value [2] was 801 nM and the IC50 ([2]; read-out: Geometric mean Abs. IC50) was 941 nM. For the same compound, the IC50 ([2]; read-out: Geometric mean Rel. IC50) was 587 nM, the “Test/Control (%) at Drug Concentration” value (NBXF SH-SY5Y; 1.0E+00 μM) was 1% and the “Test/Control (%) at Drug Concentration” value (NBXF SH-SY5Y; 1.0E+01 μM) was 0%. The “Test/Control (%) at Drug Concentration” value (NBXF SH-SY5Y; 1.0E+02 μM) was −1%, the “Test/Control (%) at Drug Concentration” value (NBXF SH-SY5Y; 1.0E−01 μM) was 63% and the “Test/Control (%) at Drug Concentration” value (NBXF SH-SY5Y; 1.0E−02 μM) was 81%. For the same compound, the “Test/Control (%) at Drug Concentration” value (NBXF SH-SY5Y; 3.2E+00 μM) was 1%, the “Test/Control (%) at Drug Concentration” value (NBXF SH-SY5Y; 3.2E+01 μM) was 0% and the “Test/Control (%) at Drug Concentration” value (NBXF SH-SY5Y; 3.2E−01 μM) was 6%. The “Test/Control (%) at Drug Concentration” value (NBXF SH-SY5Y; 3.2E−02 μM) was 78%, the “Test/Control (%) at Drug Concentration” value (NBXF SH-SY5Y; 3.2E−03 μM) was 94% and the “Test/Control (%) at Drug Concentration” value (SXFS TE671; TE671, 1.0E+00 μM) was 38%. For the same compound, the “Test/Control (%) at Drug Concentration” value (SXFS TE671; TE671, 1.0E+01 μM) was 17%, the “Test/Control (%) at Drug Concentration” value (SXFS TE671; TE671, 1.0E+02 μM) was 5% and the “Test/Control (%) at Drug Concentration” value (SXFS TE671; TE671, 1.0E−01 μM) was 72%. The “Test/Control (%) at Drug Concentration” value (SXFS TE671; TE671, 1.0E−02 μM) was 87%, the “Test/Control (%) at Drug Concentration” value (SXFS TE671; TE671, 3.2E+00 μM) was 32% and the “Test/Control (%) at Drug Concentration” value (SXFS TE671; TE671, 3.2E+01 μM) was 13%. For the same compound, the “Test/Control (%) at Drug Concentration” value (SXFS TE671; TE671, 3.2E−01 μM) was 45%, the “Test/Control (%) at Drug Concentration” value (SXFS TE671; TE671, 3.2E−02 μM) was 85% and the “Test/Control (%) at Drug Concentration” value (SXFS TE671; TE671, 3.2E−03 μM) was 80%. The “Test/Control (%) at Drug Concentration” value (NBXF SHEP; 1.0E+00 μM) was 20%, the “Test/Control (%) at Drug Concentration” value (NBXF SHEP; 1.0E+01 μM) was 20% and the “Test/Control (%) at Drug Concentration” value (NBXF SHEP; 1.0E+02 μM) was 16%. The “Test/Control (%) at Drug Concentration” value (NBXF SHEP; 1.0E−01 μM) was 72%, the “Test/Control (%) at Drug Concentration” value (NBXF SHEP; 1.0E−02 μM) was 72% and the “Test/Control (%) at Drug Concentration” value (NBXF SHEP; 3.2E+00 μM) was 27%. The “Test/Control (%) at Drug Concentration” value (NBXF SHEP; 3.2E+01 μM) was 18%, the “Test/Control (%) at Drug Concentration” value (NBXF SHEP; 3.2E−01 μM) was 47% and the “Test/Control (%) at Drug Concentration” value (NBXF SHEP; 3.2E−02 μM) was 68%. The “Test/Control (%) at Drug Concentration” value (NBXF SHEP; 3.2E−03 μM) was 72%, the IC50 (OVCAR-3; OVCAR-3, 72 h, read-out: Abs. IC50) was 426 nM and the IC50 (OVCAR-3; OVCAR-3, 72 h, read-out: Rel. IC50) was 362 nM. For the same compound, the “Test/Control (%) at Drug Concentration” value (OVCAR-3; OVCAR-3, 1.0E+00 μM) was 27%, the “Test/Control (%) at Drug Concentration” value (OVCAR-3; OVCAR-3, 1.0E−01 μM) was 95% and the “Test/Control (%) at Drug Concentration” value (OVCAR-3; OVCAR-3, 1.0E−02 μM) was 97%. The “Test/Control (%) at Drug Concentration” value (OVCAR-3; OVCAR-3, 1.0E−03 μM) was 89%, the “Test/Control (%) at Drug Concentration” value (OVCAR-3; OVCAR-3, 1.0E−04 μM) was 97% and the “Test/Control (%) at Drug Concentration” value (OVCAR-3; OVCAR-3, 3.2E+00 μM) was 26%. For the same compound, the “Test/Control (%) at Drug Concentration” value (OVCAR-3; OVCAR-3, 3.2E−01 μM) was 69%, the “Test/Control (%) at Drug Concentration” value (OVCAR-3; OVCAR-3, 3.2E−02 μM) was 90% and the “Test/Control (%) at Drug Concentration” value (OVCAR-3; OVCAR-3, 3.2E−03 μM) was 93%. The “Test/Control (%) at Drug Concentration” value (OVCAR-3; OVCAR-3, 3.2E−04 μM) was 103%, the “Abs. IC70” value (OVCAR-3; OVCAR-3, 72 h) was 749 nM and the “Rel. IC70” value (OVCAR-3; OVCAR-3, 72 h) was 447 nM. The “Bot. (%)” value (OVCAR-3; OVCAR-3, 72 h, curve fit) was 26%, the “Top (%)” value (OVCAR-3; OVCAR-3, 72 h, curve fit) was 95% and the “Test/Control (%) at Drug Concentration” value (NBXF CHP-212; CHP-212, 1.0E+00 μM) was 14%. For the same compound, the “Test/Control (%) at Drug Concentration” value (NBXF CHP-212; CHP-212, 1.0E+01 μM) was 23%, the “Test/Control (%) at Drug Concentration” value (NBXF CHP-212; CHP-212, 1.0E+02 μM) was 19% and the “Test/Control (%) at Drug Concentration” value (NBXF CHP-212; CHP-212, 1.0E−01 μM) was 59%. The “Test/Control (%) at Drug Concentration” value (NBXF CHP-212; CHP-212, 1.0E−02 μM) was 98%, the “Test/Control (%) at Drug Concentration” value (NBXF CHP-212; CHP-212, 3.2E+00 μM) was 20% and the “Test/Control (%) at Drug Concentration” value (NBXF CHP-212; CHP-212, 3.2E+01 μM) was 27%. For the same compound, the “Test/Control (%) at Drug Concentration” value (NBXF CHP-212; CHP-212, 3.2E−01 μM) was 19%, the “Test/Control (%) at Drug Concentration” value (NBXF CHP-212; CHP-212, 3.2E−02 μM) was 88% and the “Test/Control (%) at Drug Concentration” value (NBXF CHP-212; CHP-212, 3.2E−03 μM) was 95%.
